In US8802673B2, “Heterocyclic amine derivatives” (Hoffmann-La Roche Inc, priority 2011, dated 2014):

Key:
mouse TAAR1 = mouse TAAR1 (Mus musculus (Mouse), UniProt Q923Y8); test: Radioligand binding assay on mouse TAAR1; conditions: mouse TAAR1 (first value of the cell), HEK-293 membranes; read-out: Ki (μM) mouse/rat
Protocol: (§1) Construction of TAAR Expression Plasmids and Stably Transfected Cell Lines
(§2) For the construction of expression plasmids the coding sequences of human, rat and mouse TAAR 1 were amplified from genomic DNA essentially as described by Lindemann et al.. The Expand High Fidelity PCR System (Roche Diagnostics) was used with 1.5 mM Mg^2+ and purified PCR products were cloned into pCR2.1-TOPO cloning vector (Invitrogen) following the instructions of the manufacturer. PCR products were subcloned into the pIRESneo2 vector (BD Clontech, Palo Alto, Calif.), and expression vectors were sequence verified before introduction in cell lines.
(§3) HEK293 cells (ATCC #CRL-1573) were cultured essentially as described by Lindemann et al. (2005). For the generation of stably transfected cell lines HEK293 cells were transfected with the pIRESneo2 expression plasmids containing the TAAR coding sequences (described above) with Lipofectamine 2000 (Invitrogen) according to the instructions of the manufacturer, and 24 hrs post transfection the culture medium was supplemented with 1 mg/ml G418 (Sigma, Buchs, Switzerland). After a culture period of about 10 d clones were isolated, expanded and tested for responsiveness to trace amines (all compounds purchased from Sigma) with the cAMP Biotrak Enzyme immunoassay (EIA) System (Amersham) following the non-acetylation EIA procedure provided by the manufacturer.
Radioligand Binding Assay on Mouse TAAR1
Membrane Preparation and Radioligand Binding.
(§4) HEK-293 cells stably expressing mouse TAAR1 were maintained at 37° C. and 5% CO2 in DMEM high glucose medium, containing fetal calf serum (10%, heat inactivated for 30 min at 56° C.), penicillin/streptomycin (1%), and 375 μg/ml geneticin (Gibco). Cells were released from culture flasks using trypsin/EDTA, harvested, washed twice with ice-cold PBS (without Ca^2+ and Mg^2+), pelleted at 1,000 rpm for 5 min at 4° C., frozen and stored at −80° C. Frozen pellets were suspended in 20 ml HEPES-NaOH (20 mM, pH 7.4) containing 10 mM EDTA and homogenized with a Polytron (PT 6000, Kinematica) at 14,000 rpm for 20 s. The homogenate was centrifuged at 48,000×g for 30 min at 4° C. Subsequently, the supernatant was removed and discarded, and the pellet resuspended in 20 ml HEPES-NaOH (20 mM, pH 7.4) containing 0.1 mM EDTA using the Polytron (20 s at 14,000 rpm). This procedure was repeated and the final pellet resuspended in HEPES-NaOH containing 0.1 mM EDTA and homogenized using the Polytron. Typically, aliquots of 2 ml membrane portions were stored at −80° C. With each new membrane batch the dissociation constant (Kd) was determined via a saturation curve. […] All compounds were tested at a broad range of concentrations (10 pM to 10 μM) in duplicates. […] The 96 deep well plates were incubated for 1 hr at 4° C. Incubations were terminated by rapid filtration through Unifilter-96 plates (Packard Instrument Company) and glass filters GF/C (Perkin Elmer) presoaked for 1 hr in polyethylenimine (0.3%) and washed 3 times with 1 ml of cold binding buffer. After addition of 45 μl of Microscint 40 (PerkinElmer) the Unifilter-96 plate was sealed and after 1 hr the ratioactivity counted using a TopCount Microplate Scintillation Counter (Packard Instrument Company).

rat TAAR1 = rat TAAR1 (Rattus norvegicus (Rat), UniProt Q923Y9); test: Radioligand binding assay on rat TAAR1; conditions: rat TAAR1 (second value of the cell), HEK-293 membranes; read-out: Ki (μM) mouse/rat
Chain of rat TAAR1 (Q923Y9 whole entry): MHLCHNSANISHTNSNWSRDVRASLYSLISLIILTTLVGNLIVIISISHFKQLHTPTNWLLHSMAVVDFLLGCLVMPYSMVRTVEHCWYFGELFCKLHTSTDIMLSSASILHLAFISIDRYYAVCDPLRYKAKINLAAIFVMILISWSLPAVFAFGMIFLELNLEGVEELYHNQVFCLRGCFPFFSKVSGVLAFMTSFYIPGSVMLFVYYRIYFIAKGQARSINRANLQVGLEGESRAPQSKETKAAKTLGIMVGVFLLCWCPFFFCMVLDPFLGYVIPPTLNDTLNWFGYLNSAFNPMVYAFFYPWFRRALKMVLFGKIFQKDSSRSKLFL
Protocol: as §1, §2, §3
Radioligand Binding Assay on Rat TAAR1
Membrane Preparation and Radioligand Binding
as §4, with “rat” for “mouse”

Chain of mouse TAAR1 (Q923Y8 whole entry): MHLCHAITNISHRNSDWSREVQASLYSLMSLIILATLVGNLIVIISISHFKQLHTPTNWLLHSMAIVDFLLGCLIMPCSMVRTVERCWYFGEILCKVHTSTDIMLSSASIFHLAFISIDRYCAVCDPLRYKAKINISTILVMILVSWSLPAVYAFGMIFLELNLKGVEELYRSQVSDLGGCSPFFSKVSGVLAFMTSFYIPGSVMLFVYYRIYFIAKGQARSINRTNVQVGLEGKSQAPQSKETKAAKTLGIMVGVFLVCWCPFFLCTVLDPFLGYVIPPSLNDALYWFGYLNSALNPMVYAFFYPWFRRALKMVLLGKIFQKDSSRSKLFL

Question: For `Clc1ccc(CNc2ccc([C@H]3CNCCO3)cc2)cc1Cl` [Example 30, (3,4-Dichloro-benzyl)-((S)-4-morpholin-2-yl-phenyl)-amine], which Ki (mouse TAAR1) is on record?
Answer: The Ki was 0.0051 µM.

Question: What about the Ki (rat TAAR1) of the same compound?
Answer: The Ki was 0.0417 µM.

Question: With `Fc1ccc(CNc2ccc([C@H]3CNCCO3)cc2)cc1` [Example 31, (4-Fluoro-benzyl)-((S)-4-morpholin-2-yl-phenyl)-amine] as the compound, how does the Ki (mouse TAAR1) read?
Answer: Its Ki is 0.0452 µM.

Question: And the Ki (rat TAAR1)?
Answer: Its Ki is 0.222 µM.

Question: `Clc1ccc(CNc2ccc([C@H]3CNCCO3)cc2)cn1` [Example 32, (S)—N-((6-Chloropyridin-3-yl)methyl)-4-(morpholin-2-yl)aniline] was tested. Which Ki (mouse TAAR1) did it give?
Answer: The Ki was 0.0357 µM.

Question: What about the Ki (rat TAAR1) of the same compound?
Answer: The Ki was 1.24 µM.

Question: Which results are given for `FC(F)(F)c1ccc(CNc2ccc([C@H]3CNCCO3)cc2)cn1` [Example 33, (S)-4-(Morpholin-2-yl)-N-((6-(trifluoromethyl)pyridin-3-yl)methyl)aniline]?
Answer: Ki (mouse TAAR1): 0.047 µM; Ki (rat TAAR1): 0.544 µM

Question: With `Clc1ccc(CCNc2ccc([C@H]3CNCCO3)cc2)cc1` [Example 34, [2-(4-Chloro-phenyl)-ethyl]-((S)-4-morpholin-2-yl-phenyl)-amine] as the compound, how does the Ki (mouse TAAR1) read?
Answer: The Ki was 0.0042 µM.

Question: What about the Ki (rat TAAR1) of the same compound?
Answer: The Ki was 0.0181 µM.

Question: Which results are given for `Fc1cc(Cl)ccc1CNc1ccc([C@H]2CNCCO2)cc1` [Example 35, (4-Chloro-2-fluoro-benzyl)-((S)-4-morpholin-2-yl-phenyl)-amine]?
Answer: Ki (mouse TAAR1): 0.0096 µM; Ki (rat TAAR1): 0.188 µM

Question: `CCc1ccc(CNc2ccc([C@H]3CNCCO3)cc2)cc1` [Example 36, (4-Ethyl-benzyl)-((S)-4-morpholin-2-yl-phenyl)-amine] was tested. Which Ki (mouse TAAR1) did it give?
Answer: Its Ki is 0.0288 µM.

Question: What about the Ki (rat TAAR1) of the same compound?
Answer: Its Ki is 0.163 µM.

Question: `Clc1ccc(Nc2ccc([C@H]3CNCCO3)cc2)nc1` [Example 38, (5-Chloro-pyridin-2-yl)-((S)-4-morpholin-2-yl-phenyl)-amine] was tested. Which Ki (mouse TAAR1) did it give?
Answer: Its Ki is 0.0011 µM.

Question: And the Ki (rat TAAR1)?
Answer: The Ki was 0.0544 µM.

Question: With `COc1ccnc(Nc2ccc([C@H]3CNCCO3)cc2)c1` [Example 39, (S)-4-Methoxy-N-(4-(morpholin-2-yl)phenyl)pyridin-2-amine] as the compound, how does the Ki (mouse TAAR1) read?
Answer: The Ki was 0.004 µM.

Question: And the Ki (rat TAAR1)?
Answer: Its Ki is 0.251 µM.

Question: Which results are given for `Fc1cc(Nc2ccc([C@H]3CNCCO3)cc2)cnc1Cl` [Example 40, (S)-6-Chloro-5-fluoro-N-(4-(morpholin-2-yl)phenyl)pyridin-3-amine]?
Answer: Ki (mouse TAAR1): 0.0026 µM; Ki (rat TAAR1): 0.188 µM

Question: For `FC(F)(F)c1cccnc1Nc1ccc([C@H]2CNCCO2)cc1` [Example 41, (S)—N-(4-(Morpholin-2-yl)phenyl)-3-(trifluoromethyl)pyridin-2-amine], which Ki (mouse TAAR1) is on record?
Answer: The Ki was 0.27 µM.

Question: And the Ki (rat TAAR1)?
Answer: The Ki was 1.08 µM.

Question: How did the Ki (mouse TAAR1) turn out when `FC(F)(F)c1ccnc(Nc2ccc([C@H]3CNCCO3)cc2)c1` [Example 42, (S)—N-(4-(Morpholin-2-yl)phenyl)-4-(trifluoromethyl)pyridin-2-amine] was run?
Answer: Its Ki is 0.0023 µM.

Question: What about the Ki (rat TAAR1) of the same compound?
Answer: Its Ki is 0.0518 µM.

Question: How did the Ki (mouse TAAR1) turn out when `Fc1cncc(Nc2ccc([C@H]3CNCCO3)cc2)c1` [Example 43, (S)-5-Fluoro-N-(4-(morpholin-2-yl)phenyl)pyridin-3-amine] was run?
Answer: Its Ki is 0.0269 µM.

Question: What about the Ki (rat TAAR1) of the same compound?
Answer: Its Ki is 0.648 µM.

Question: Which Ki (mouse TAAR1) does the source give for `c1ccc2cc(Nc3ccc([C@H]4CNCCO4)cc3)ccc2c1` [Example 44, ((S)-4-Morpholin-2-yl-phenyl)-naphthalen-2-yl-amine] here?
Answer: The Ki was 0.0007 µM.

Question: What about the Ki (rat TAAR1) of the same compound?
Answer: Its Ki is 0.0118 µM.

Question: Which Ki (mouse TAAR1) does the source give for `Brc1ccc(CNc2ccc([C@H]3CNCCO3)cc2)cc1` [Example 45, (4-Bromo-benzyl)-((S)-4-morpholin-2-yl-phenyl)-amine] here?
Answer: Its Ki is 0.0061 µM.

Question: And the Ki (rat TAAR1)?
Answer: Its Ki is 0.126 µM.

Question: Which results are given for `c1ccc2nc(Nc3ccc([C@H]4CNCCO4)cc3)ccc2c1` [Example 46, ((S)-4-Morpholin-2-yl-phenyl)-quinolin-2-yl-amine]?
Answer: Ki (mouse TAAR1): 0.0008 µM; Ki (rat TAAR1): 0.0643 µM

Question: Which Ki (mouse TAAR1) does the source give for `Clc1ccc2nc(Nc3ccc([C@H]4CNCCO4)cc3)ccc2c1` [Example 47, (S)-6-Chloro-N-(4-(morpholin-2-yl)phenyl)quinolin-2-amine] here?
Answer: The Ki was 0.0012 µM.

Question: And the Ki (rat TAAR1)?
Answer: The Ki was 0.0067 µM.

Question: For `FC(F)(F)c1cc(Nc2ccc([C@H]3CNCCO3)cc2)c2cccc(C(F)(F)F)c2n1` [Example 49, (S)—N-(4-(Morpholin-2-yl)phenyl)-2,8-bis(trifluoromethyl)quinolin-4-amine], which Ki (mouse TAAR1) is on record?
Answer: Its Ki is 0.0266 µM.

Question: And the Ki (rat TAAR1)?
Answer: The Ki was 0.104 µM.

Question: `Clc1ccc2ncnc(Nc3ccc([C@H]4CNCCO4)cc3)c2c1` [Example 50, (S)-6-Chloro-N-(4-(morpholin-2-yl)phenyl)quinazolin-4-amine] was tested. Which Ki (mouse TAAR1) did it give?
Answer: The Ki was 0.005 µM.

Question: And the Ki (rat TAAR1)?
Answer: The Ki was 0.0608 µM.

Question: `Clc1nc2ccccc2cc1CNc1ccc([C@H]2CNCCO2)cc1` [Example 51, (S)—N-((2-Chloroquinolin-3-yl)methyl)-4-(morpholin-2-yl)aniline] was tested. Which Ki (mouse TAAR1) did it give?
Answer: Its Ki is 0.0363 µM.

Question: What about the Ki (rat TAAR1) of the same compound?
Answer: Its Ki is 0.28 µM.

Question: For `Clc1cccc2ccc(Nc3ccc([C@H]4CNCCO4)cc3)nc12` [Example 52, (S)-8-Chloro-N-(4-(morpholin-2-yl)phenyl)quinolin-2-amine], which Ki (mouse TAAR1) is on record?
Answer: The Ki was 0.0005 µM.

Question: What about the Ki (rat TAAR1) of the same compound?
Answer: The Ki was 0.0084 µM.

Question: What does the source list for `Brc1cccc2nc(Nc3ccc([C@H]4CNCCO4)cc3)ccc12` [Example 53, (S)-5-Bromo-N-(4-(morpholin-2-yl)phenyl)quinolin-2-amine]?
Answer: Ki (mouse TAAR1): 0.0012 µM; Ki (rat TAAR1): 0.0045 µM

Question: What does the source list for `Clc1cc(Nc2ccc([C@H]3CNCCO3)cc2)nc2ccccc12` [Example 54, (S)-4-Chloro-N-(4-(morpholin-2-yl)phenyl)quinolin-2-amine]?
Answer: Ki (mouse TAAR1): 0.0008 µM; Ki (rat TAAR1): 0.0138 µM

Question: For `Fc1ncccc1Nc1ccc([C@H]2CNCCO2)cc1` [Example 55, (2-Fluoro-pyridin-3-yl)-((S)-4-morpholin-2-yl-phenyl)-amine], which Ki (mouse TAAR1) is on record?
Answer: The Ki was 0.738 µM.

Question: What about the Ki (rat TAAR1) of the same compound?
Answer: The Ki was 1.98 µM.

Question: Which Ki (mouse TAAR1) does the source give for `Cc1cc(Br)cnc1Nc1ccc([C@H]2CNCCO2)cc1` [Example 56, (S)-5-Bromo-3-methyl-N-(4-(morpholin-2-yl)phenyl)pyridin-2-amine] here?
Answer: The Ki was 0.0372 µM.

Question: What about the Ki (rat TAAR1) of the same compound?
Answer: Its Ki is 0.211 µM.

Question: `Fc1cc(Br)cnc1Nc1ccc([C@H]2CNCCO2)cc1` [Example 57, (S)-5-Bromo-3-fluoro-N-(4-(morpholin-2-yl)phenyl)pyridin-2-amine] was tested. Which Ki (mouse TAAR1) did it give?
Answer: Its Ki is 0.0023 µM.

Question: And the Ki (rat TAAR1)?
Answer: The Ki was 0.0866 µM.

Question: For `Clc1cnc(Nc2ccc([C@H]3CNCCO3)cc2)c(Cl)c1` [Example 58, (S)-3,5-Dichloro-N-(4-(morpholin-2-yl)phenyl)pyridin-2-amine], which Ki (mouse TAAR1) is on record?
Answer: The Ki was 0.0704 µM.

Question: And the Ki (rat TAAR1)?
Answer: Its Ki is 0.584 µM.

Question: For `Fc1cc(Cl)ccc1Nc1ccc([C@H]2CNCCO2)cc1` [Example 59, (S)-4-Chloro-2-fluoro-N-(4-(morpholin-2-yl)phenyl)aniline], which Ki (mouse TAAR1) is on record?
Answer: The Ki was 0.0049 µM.

Question: What about the Ki (rat TAAR1) of the same compound?
Answer: The Ki was 0.207 µM.

Question: `CN(c1ccc(Cl)cc1)c1ccc([C@H]2CNCCO2)cc1` [Example 60, (4-Chloro-phenyl)-methyl-((S)-4-morpholin-2-yl-phenyl)-amine] was tested. Which Ki (mouse TAAR1) did it give?
Answer: Its Ki is 0.0222 µM.

Question: What about the Ki (rat TAAR1) of the same compound?
Answer: The Ki was 0.758 µM.

Question: How did the Ki (mouse TAAR1) turn out when `Brc1cnc(Nc2ccc([C@H]3CNCCO3)cc2)c(Br)c1` [Example 61, (S)-3,5-Dibromo-N-(4-(morpholin-2-yl)phenyl)pyridin-2-amine] was run?
Answer: The Ki was 0.0591 µM.

Question: And the Ki (rat TAAR1)?
Answer: The Ki was 0.502 µM.
